Measurements from ChEMBL document CHEMBL1144945, “Development of progesterone receptor antagonists from 1,2-dihydrochromeno[3,4-f]quinoline agonist pharmacophore” (Bioorg Med Chem Lett, 2003).

How the values were obtained:
Androgen receptor = molecular target: T1, Androgen receptor (Homo sapiens, UniProt P10275); experiment: Inhibition of antagonist activity towards human androgen receptor; format: functional
T1 sequence (P10275 whole entry): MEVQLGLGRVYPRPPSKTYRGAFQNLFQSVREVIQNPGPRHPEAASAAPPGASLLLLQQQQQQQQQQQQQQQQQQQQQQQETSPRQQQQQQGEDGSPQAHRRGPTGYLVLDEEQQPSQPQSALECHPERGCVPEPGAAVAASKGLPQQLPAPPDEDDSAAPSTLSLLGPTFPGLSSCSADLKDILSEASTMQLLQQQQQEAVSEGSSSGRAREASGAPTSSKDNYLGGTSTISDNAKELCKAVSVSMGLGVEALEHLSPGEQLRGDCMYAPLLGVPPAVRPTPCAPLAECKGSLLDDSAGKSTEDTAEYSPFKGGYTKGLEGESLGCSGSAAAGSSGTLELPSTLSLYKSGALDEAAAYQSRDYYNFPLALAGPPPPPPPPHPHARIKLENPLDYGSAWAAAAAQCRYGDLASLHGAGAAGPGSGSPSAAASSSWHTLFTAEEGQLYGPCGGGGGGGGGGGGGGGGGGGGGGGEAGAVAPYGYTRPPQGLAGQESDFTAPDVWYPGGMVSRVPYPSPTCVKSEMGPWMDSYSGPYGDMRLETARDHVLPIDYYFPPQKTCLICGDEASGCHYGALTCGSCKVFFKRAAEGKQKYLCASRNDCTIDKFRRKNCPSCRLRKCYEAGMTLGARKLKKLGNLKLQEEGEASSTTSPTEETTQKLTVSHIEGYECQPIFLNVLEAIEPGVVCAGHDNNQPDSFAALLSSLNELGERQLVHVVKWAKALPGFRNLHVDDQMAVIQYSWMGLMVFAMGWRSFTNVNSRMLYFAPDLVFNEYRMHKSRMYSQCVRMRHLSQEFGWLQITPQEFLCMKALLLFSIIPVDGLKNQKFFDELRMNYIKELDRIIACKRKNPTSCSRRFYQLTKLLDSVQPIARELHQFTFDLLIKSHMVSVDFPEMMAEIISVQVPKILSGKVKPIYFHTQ

Progesterone receptor [1] = molecular target: T2, Progesterone receptor (Homo sapiens, UniProt P06401); experiment: Effective concentration for human progesterone in T47D human breast cancer cell; format: cell-based, Cancer cell lines
T2 sequence (P06401 whole entry): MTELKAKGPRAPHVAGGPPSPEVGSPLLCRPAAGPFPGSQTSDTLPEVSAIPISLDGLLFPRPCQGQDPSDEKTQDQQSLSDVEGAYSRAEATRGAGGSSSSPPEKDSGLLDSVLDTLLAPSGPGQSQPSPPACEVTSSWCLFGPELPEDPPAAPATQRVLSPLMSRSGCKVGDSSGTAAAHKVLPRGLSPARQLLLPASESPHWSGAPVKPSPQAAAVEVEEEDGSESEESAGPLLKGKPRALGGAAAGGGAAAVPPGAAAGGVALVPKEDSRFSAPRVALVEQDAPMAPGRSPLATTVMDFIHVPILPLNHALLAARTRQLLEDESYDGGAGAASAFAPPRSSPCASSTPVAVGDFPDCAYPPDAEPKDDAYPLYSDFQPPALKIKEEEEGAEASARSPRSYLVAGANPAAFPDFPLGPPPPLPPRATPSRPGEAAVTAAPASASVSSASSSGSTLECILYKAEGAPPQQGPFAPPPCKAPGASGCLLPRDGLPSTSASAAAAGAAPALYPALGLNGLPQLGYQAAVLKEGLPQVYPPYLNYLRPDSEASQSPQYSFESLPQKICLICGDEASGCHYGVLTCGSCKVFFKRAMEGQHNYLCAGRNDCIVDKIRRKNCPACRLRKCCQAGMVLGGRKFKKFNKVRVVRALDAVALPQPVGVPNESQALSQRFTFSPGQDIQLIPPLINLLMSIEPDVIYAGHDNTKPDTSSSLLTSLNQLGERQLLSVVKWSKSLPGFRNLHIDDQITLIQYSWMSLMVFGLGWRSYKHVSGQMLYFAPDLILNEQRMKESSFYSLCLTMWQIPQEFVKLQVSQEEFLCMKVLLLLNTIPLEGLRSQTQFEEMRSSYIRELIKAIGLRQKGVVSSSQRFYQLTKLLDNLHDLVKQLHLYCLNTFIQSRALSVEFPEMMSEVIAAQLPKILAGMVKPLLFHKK

Progesterone receptor [2] = molecular target: T2, Progesterone receptor; experiment: Inhibition of human progesterone in T47D human breast cancer cell; format: cell-based

Row | IC50 (Androgen receptor) | EC50 (Progesterone receptor [1]) | IC50 (Progesterone receptor [2]) | Compound
1 | 147 nM | – | – | CC1CC(C)(C)Nc2ccc3c(c21)COc1c(F)cc(F)cc1-3 (stereo not drawn)
2 | – | 244 nM | 86 nM | CC1=CC(C)(C)Nc2ccc3c(c21)COc1c(F)cc(F)cc1-3
